Drawing on US9206124B2, “Treatment of drug-resistant cancer with 2-aryl-2-(3-indolyl) acetohydroxamates” (New Mexico Technical Research Foundation, priority 2013, dated 2015), this text covers GI50 for one compound.

Assay [1] deals with MES-SA/Dx5 MDR uterine sarcoma cells. Description: MTT antiproliferative assay, MDR MES-SA/Dx5. The settings on record: Homo sapiens, MES-SA/Dx5; 48 h treatment, MTT, ± SD; MDR line; read-out: GI50 in vitro, MES-SA/Dx5. Type of assay: cell-based, human. As to the method:
Compared with the intrinsic drug resistance, as described above for such cancers as glioblastoma and melanoma, a large variety of tumors can also develop resistance to anticancer drugs resulting in MDR as explained previously. To assess whether the hydroxamates can overcome this resistance mechanism, selected hydroxamates were tested against MDR cells (Table 4). The MDR uterine sarcoma cell line MES-SA/Dx5 was utilized for this experiment. This cell line was established from the parent uterine sarcoma MES-SA, grown in the presence of increasing concentrations of doxorubicin and known to be resistant to a number of P-gp substrates.
(§1) Human cancer cell lines were obtained from the American Type Culture Collection (ATCC, Manassas, Va., USA), the European Collection of Cell Culture (ECACC, Salisbury, UK) and the Deutsche Sammlung von Mikroorganismen and Zellkulturen (DSMZ, Braunschweig, Germany). Human cervical adenocarcinoma HeLa cells were cultured in DMEM supplemented with 10% fetal bovine serum (FBS). Human mammary carcinoma MCF-7 cells were cultured in RPMI supplemented with 10% FBS. The U87 cells (ATCC HTB-14) were cultured in DMEM culture medium, while the A549 cells (DSMZ ACC107) were cultured in RPMI culture medium supplemented with 10% heat-inactivated FBS. The glioblastoma multiforme Hs683 (ATCC HTB-138) and the T98G (ATCC CRL-1690) cell lines were cultivated in DMEM supplemented with 10% FBS. The Human uterine sarcoma MES-SA and MES-SA/Dx5 cells were cultured in RPMI-1640 medium supplemented with 10% FBS with MES SA/Dx5 maintained in the presence of 500 nM Doxorubicin (Sigma). SKMEL-28 cells (ATCC HTB72) and U373 glioblastoma cells (ECACC 08061901) were cultured in RPMI culture medium supplemented with 10% heat-inactivated FBS. Cell culture media were supplemented with 4 mM glutamine (Lonza code BE17-605E), 100 μg/mL gentamicin (Lonza code 17-5182), and penicillin-streptomycin (200 units/ml and 200 μg/ml) (Lonza code 17-602E). Neurosphere culture GBM 031810 was established using known methods and maintained in Neurobasal medium (Invitrogen Carlsbad, Calif.) with B27 supplement (20 ul/ml; Invitrogen), Glutamax (10 ul/ml; Invitrogen), fibroblast growth factor-2 (20 ng/ml; Peprotech, Rocky Hill, N.J., USA), epidermal growth factor (20 ng/ml; Peprotech), heparin (32 IE/ml; Sigma Aldrich, St. Louis, Mo.), and penicillin-streptomycin (1×, Invitrogen). Growth factors and heparin were renewed twice weekly. All cell lines were cultured in T25 flasks, maintained and grown at 37° C., 95% humidity, 5% CO2.
(§2) Antiproliferative properties of the synthesized compounds were evaluated by the MTT assay. All compounds were dissolved in DMSO at a concentration of either 100 mM or 50 mM prior to cell treatment. The cells were trypsinized and seeded at 4×10^3 cells per well into 96-well plates. The cells were grown for 24 h, treated with compounds at concentrations ranging from 0.001 to 100 μM and incubated for 48 h in 200 μL media. 20 μL of MTT reagent in serum free medium (5 mg/mL) was added to each well and incubated further for 2 h. Media was removed and the resulting formazan crystals were re-solubilized in 200 μL of DMSO. A490 was measured using a Molecular Devices Thermomax plate reader. The experiments were performed in quadruplicate and repeated at least twice for each compound per cell line. Cells treated with 0.1% DMSO were used as a negative control; 1 μM phenyl arsine oxide (PAO) was used as a positive control.
Selection of the MES-SA/Dx5 cell line was done according to W. G. Harker and B. I. Sikic, Cancer Res. 1985, p. 45, 4091. The cells were split and allowed to adhere overnight. […] The cells were maintained at this DOX concentration until their growth rate reached that of the untreated cells.
For orientation: Tetrazolium dyes change colour on reduction, which living cells bring about.

Assay [2] deals with T98G glioblastoma cells. Description: MTT antiproliferative assay, T98G. Type of assay: cell-based. The settings on record: Homo sapiens, 48 h treatment, ± SD, read-out: GI50 in vitro, T98G. As to the method:
As part of the ongoing efforts aimed at identification of compounds active against cancer cells displaying resistance to proapoptotic agents, the selected 2-aryl-2-(3-indolyl)-acetohydroxamates were evaluated for in vitro growth inhibition against a panel of additional cancer cell lines including those resistant to various proapoptotic stimuli, such as human T98G and U87 glioblastoma and human A549 non-small-cell-lung cancer (NSCLC), as well as an apoptosis-sensitive tumor model, such as human Hs683 anaplastic oligodendroglioma, used as a reference. The data reveal that for the most part these compounds retain the single-digit antiproliferatve GI50 values in this challenging cancer cell panel.
as §1, §2

Molecules are shown by their SMILES.

Turning to `O=C(NO)C(c1ccccc1)c1c(-c2ccc3ccccc3c2)[nH]c2ccccc12` (centres unmarked) [Compound 3aafa], the GI50 in assay [1] was 4 ± 1.1 µM; in assay [2], 36.4 ± 1.9 µM.
